{"source": "paper PMC7523345", "about": "(Investigational new drugs, 2018)", "assay": "Phase I dose escalation study: safety, tolerability, DLT and MTD", "type": "in vivo", "note": "“Also recorded” adds a separate entry of the source."}
{"smiles": "Cc1cccc2c1NC(=O)[C@@H](NC(=O)[C@H](CCC(F)(F)F)[C@H](CCC(F)(F)F)C(N)=O)N=C2c1cccc(F)c1", "note": "[BMS-986115]", "values": [{"measurement": "Diarrhoea (drug related AE, Grade 3 and 4)", "setting": "Arm A QD 1.5 mg (N = 7)", "value": "2 (29) n (%)"}, {"measurement": "Diarrhoea (drug related AE, all grades)", "setting": "Arm A QD 1.5 mg (N = 7)", "value": "6 (86) n (%)"}, {"measurement": "Dry mouth (drug related AE, all grades)", "setting": "Arm A QD 1.5 mg (N = 7)", "value": "0 n (%)"}, {"measurement": "Dry skin (drug related AE, all grades)", "setting": "Arm A QD 1.5 mg (N = 7)", "value": "1 (14) n (%)"}, {"measurement": "Dysgeusia (drug related AE, all grades)", "setting": "Arm A QD 1.5 mg (N = 7)", "value": "0 n (%)"}, {"measurement": "Dyspepsia (drug related AE, all grades)", "setting": "Arm A QD 1.5 mg (N = 7)", "value": "0 n (%)"}, {"measurement": "Dysphonia (drug related AE, all grades)", "setting": "Arm A QD 1.5 mg (N = 7)", "value": "1 (14) n (%)"}, {"measurement": "Fatigue (drug related AE, Grade 3 and 4)", "setting": "Arm A QD 1.5 mg (N = 7)", "value": "1 (14) n (%)"}, {"measurement": "Fatigue (drug related AE, all grades)", "setting": "Arm A QD 1.5 mg (N = 7)", "value": "4 (57) n (%)"}, {"measurement": "Flatulence (drug related AE, all grades)", "setting": "Arm A QD 1.5 mg (N = 7)", "value": "0 n (%)"}, {"measurement": "Hypocalcaemia (drug related AE, Grade 3 and 4)", "setting": "Arm A QD 1.5 mg (N = 7)", "value": "0 n (%)"}, {"measurement": "Hypocalcaemia (drug related AE, all grades)", "setting": "Arm A QD 1.5 mg (N = 7)", "value": "1 (14) n (%)"}, {"measurement": "Hypokalaemia (drug related AE, Grade 3 and 4)", "setting": "Arm A QD 1.5 mg (N = 7)", "value": "1 (14) n (%)"}, {"measurement": "Hypokalaemia (drug related AE, all grades)", "setting": "Arm A QD 1.5 mg (N = 7)", "value": "2 (29) n (%)"}, {"measurement": "Hyponatraemia (drug related AE, Grade 3 and 4)", "setting": "Arm A QD 1.5 mg (N = 7)", "value": "1 (14) n (%)"}, {"measurement": "Hyponatraemia (drug related AE, all grades)", "setting": "Arm A QD 1.5 mg (N = 7)", "value": "1 (14) n (%)"}, {"measurement": "Hypophosphataemia (drug related AE, Grade 3 and 4)", "setting": "Arm A QD 1.5 mg (N = 7)", "value": "2 (29) n (%)"}, {"measurement": "Hypophosphataemia (drug related AE, all grades)", "setting": "Arm A QD 1.5 mg (N = 7)", "value": "4 (57) n (%)"}, {"measurement": "Ileus (drug related AE, Grade 3 and 4)", "setting": "Arm A QD 1.5 mg (N = 7)", "value": "0 n (%)"}, {"measurement": "Increased upper airway secretion (drug related AE, all grades)", "setting": "Arm A QD 1.5 mg (N = 7)", "value": "0 n (%)"}, {"measurement": "Laryngeal pain (drug related AE, all grades)", "setting": "Arm A QD 1.5 mg (N = 7)", "value": "2 (29) n (%)"}, {"measurement": "Leucocytosis (drug related AE, Grade 3 and 4)", "setting": "Arm A QD 1.5 mg (N = 7)", "value": "0 n (%)"}, {"measurement": "Mouth ulceration (drug related AE, all grades)", "setting": "Arm A QD 1.5 mg (N = 7)", "value": "0 n (%)"}, {"measurement": "Nausea (drug related AE, Grade 3 and 4)", "setting": "Arm A QD 1.5 mg (N = 7)", "value": "2 (29) n (%)"}, {"measurement": "Nausea (drug related AE, all grades)", "setting": "Arm A QD 1.5 mg (N = 7)", "value": "5 (71) n (%)"}, {"measurement": "Pruritus (drug related AE, Grade 3 and 4)", "setting": "Arm A QD 1.5 mg (N = 7)", "value": "0 n (%)"}, {"measurement": "Pruritus (drug related AE, all grades)", "setting": "Arm A QD 1.5 mg (N = 7)", "value": "2 (29) n (%)"}, {"measurement": "Pulmonary embolism (drug related AE, Grade 3 and 4)", "setting": "Arm A QD 1.5 mg (N = 7)", "value": "1 (14) n (%)"}, {"measurement": "Rash (drug related AE, all grades)", "setting": "Arm A QD 1.5 mg (N = 7)", "value": "2 (29) n (%)"}, {"measurement": "Rash maculopapular (drug related AE, all grades)", "setting": "Arm A QD 1.5 mg (N = 7)", "value": "0 n (%)"}, {"measurement": "Sinusitis (drug related AE, all grades)", "setting": "Arm A QD 1.5 mg (N = 7)", "value": "0 n (%)"}, {"measurement": "Urticaria (drug related AE, Grade 3 and 4)", "setting": "Arm A QD 1.5 mg (N = 7)", "value": "0 n (%)"}, {"measurement": "Vision blurred (drug related AE, all grades)", "setting": "Arm A QD 1.5 mg (N = 7)", "value": "1 (14) n (%)"}, {"measurement": "Vomiting (drug related AE, Grade 3 and 4)", "setting": "Arm A QD 1.5 mg (N = 7)", "value": "0 n (%)"}, {"measurement": "Vomiting (drug related AE, all grades)", "setting": "Arm A QD 1.5 mg (N = 7)", "value": "4 (57) n (%)"}, {"measurement": "Weight decreased (drug related AE, all grades)", "setting": "Arm A QD 1.5 mg (N = 7)", "value": "1 (14) n (%)"}, {"measurement": "No. of patients with DLTs", "setting": "Arm A QD 1.5 mg, 6 DLT evaluable patients", "value": 1}, {"measurement": "Description of DLT", "setting": "Arm A QD 2.0 mg", "value": "Gr 3 ileus; Gr 3 nausea; Gr 3 pruritus/urticaria; also recorded: G3 ileus; also recorded: G3 nausea; also recorded: G3 pruritus/urticaria"}, {"measurement": "Abdominal distension (drug related AE, all grades)", "setting": "Arm A QD 2.0 mg (N = 7)", "value": "0 n (%)"}, {"measurement": "Abdominal pain (drug related AE, Grade 3 and 4)", "setting": "Arm A QD 2.0 mg (N = 7)", "value": "0 n (%)"}, {"measurement": "Abdominal pain (drug related AE, all grades)", "setting": "Arm A QD 2.0 mg (N = 7)", "value": "1 (14) n (%)"}, {"measurement": "Blood creatinine increased (drug related AE, all grades)", "setting": "Arm A QD 2.0 mg (N = 7)", "value": "1 (14) n (%)"}, {"measurement": "Colitis (drug related AE, Grade 3 and 4)", "setting": "Arm A QD 2.0 mg (N = 7)", "value": "0 n (%)"}, {"measurement": "Cough (drug related AE, Grade 3 and 4)", "setting": "Arm A QD 2.0 mg (N = 7)", "value": "1 (14) n (%)"}, {"measurement": "Cough (drug related AE, all grades)", "setting": "Arm A QD 2.0 mg (N = 7)", "value": "1 (14) n (%)"}, {"measurement": "Decreased Appetite (drug related AE, Grade 3 and 4)", "setting": "Arm A QD 2.0 mg (N = 7)", "value": "0 n (%)"}, {"measurement": "Decreased Appetite (drug related AE, all grades)", "setting": "Arm A QD 2.0 mg (N = 7)", "value": "5 (71) n (%)"}, {"measurement": "Dehydration (drug related AE, Grade 3 and 4)", "setting": "Arm A QD 2.0 mg (N = 7)", "value": "0 n (%)"}, {"measurement": "Dehydration (drug related AE, all grades)", "setting": "Arm A QD 2.0 mg (N = 7)", "value": "1 (14) n (%)"}, {"measurement": "Dermatitis acneiform (drug related AE, all grades)", "setting": "Arm A QD 2.0 mg (N = 7)", "value": "0 n (%)"}, {"measurement": "Diarrhoea (drug related AE, Grade 3 and 4)", "setting": "Arm A QD 2.0 mg (N = 7)", "value": "1 (14) n (%)"}, {"measurement": "Diarrhoea (drug related AE, all grades)", "setting": "Arm A QD 2.0 mg (N = 7)", "value": "5 (71) n (%)"}, {"measurement": "Dry mouth (drug related AE, all grades)", "setting": "Arm A QD 2.0 mg (N = 7)", "value": "1 (14) n (%)"}, {"measurement": "Dry skin (drug related AE, all grades)", "setting": "Arm A QD 2.0 mg (N = 7)", "value": "1 (14) n (%)"}, {"measurement": "Dysgeusia (drug related AE, all grades)", "setting": "Arm A QD 2.0 mg (N = 7)", "value": "1 (14) n (%)"}, {"measurement": "Dyspepsia (drug related AE, all grades)", "setting": "Arm A QD 2.0 mg (N = 7)", "value": "1 (14) n (%)"}, {"measurement": "Dysphonia (drug related AE, all grades)", "setting": "Arm A QD 2.0 mg (N = 7)", "value": "3 (43) n (%)"}, {"measurement": "Fatigue (drug related AE, Grade 3 and 4)", "setting": "Arm A QD 2.0 mg (N = 7)", "value": "0 n (%)"}, {"measurement": "Fatigue (drug related AE, all grades)", "setting": "Arm A QD 2.0 mg (N = 7)", "value": "4 (57) n (%)"}, {"measurement": "Flatulence (drug related AE, all grades)", "setting": "Arm A QD 2.0 mg (N = 7)", "value": "0 n (%)"}, {"measurement": "Hypocalcaemia (drug related AE, Grade 3 and 4)", "setting": "Arm A QD 2.0 mg (N = 7)", "value": "0 n (%)"}, {"measurement": "Hypocalcaemia (drug related AE, all grades)", "setting": "Arm A QD 2.0 mg (N = 7)", "value": "0 n (%)"}, {"measurement": "Hypokalaemia (drug related AE, Grade 3 and 4)", "setting": "Arm A QD 2.0 mg (N = 7)", "value": "2 (29) n (%)"}, {"measurement": "Hypokalaemia (drug related AE, all grades)", "setting": "Arm A QD 2.0 mg (N = 7)", "value": "2 (29) n (%)"}, {"measurement": "Hyponatraemia (drug related AE, Grade 3 and 4)", "setting": "Arm A QD 2.0 mg (N = 7)", "value": "0 n (%)"}, {"measurement": "Hyponatraemia (drug related AE, all grades)", "setting": "Arm A QD 2.0 mg (N = 7)", "value": "0 n (%)"}, {"measurement": "Hypophosphataemia (drug related AE, Grade 3 and 4)", "setting": "Arm A QD 2.0 mg (N = 7)", "value": "3 (43) n (%)"}, {"measurement": "Hypophosphataemia (drug related AE, all grades)", "setting": "Arm A QD 2.0 mg (N = 7)", "value": "3 (43) n (%)"}, {"measurement": "Ileus (drug related AE, Grade 3 and 4)", "setting": "Arm A QD 2.0 mg (N = 7)", "value": "1 (14) n (%)"}, {"measurement": "Increased upper airway secretion (drug related AE, all grades)", "setting": "Arm A QD 2.0 mg (N = 7)", "value": "0 n (%)"}, {"measurement": "Laryngeal pain (drug related AE, all grades)", "setting": "Arm A QD 2.0 mg (N = 7)", "value": "0 n (%)"}]}
